From patent publication US4267112A, “Antibiotic U-58,431” (The Upjohn Company, priority 1979, dated 1981)

What was measured:
[1] = test system: Diplococcus pneumoniae UC 41; assay: antibacterial broth MIC assay; format: cell-based; settings: Brain Heart Infusion Broth, 42 hours
Method: (§1) The antibacterial assay is a standard microbiological broth assay. The MIC is determined by standard methods using two-fold dilutions of the antibiotic in Brian Heart Infusion Broth (Difco Lab., Detroit, Michigan). The inocula are overnight cultures of the test organisms, diluted so that the final population contains approximately 10^5 cells/ml. The tubes are incubated at 28° to 37° C. for 42 hours. The lowest antibiotic concentration which allows no growth=MIC or minimum inhibitory concentration.

[2] = test system: Escherichia coli UC 45; assay: antibacterial broth MIC assay; format: cell-based; settings: Brain Heart Infusion Broth, 42 hours
Method: as §1

[3] = test system: Klebsiella pneumoniae UC 58; assay: antibacterial broth MIC assay; format: cell-based; settings: Brain Heart Infusion Broth, 42 hours
Method: as §1

[4] = test system: Proteus vulgaris UC 93; assay: antibacterial broth MIC assay; format: cell-based; settings: Brain Heart Infusion Broth, 42 hours
Method: as §1

[5] = test system: Pseudomonas aeruginosa UC 95; assay: antibacterial broth MIC assay; format: cell-based; settings: Brain Heart Infusion Broth, 42 hours
Method: as §1

[6] = test system: Salmonella schottmuelleri UC 126; assay: antibacterial broth MIC assay; format: cell-based; settings: Brain Heart Infusion Broth, 42 hours
Method: as §1

[7] = test system: Staphylococcus aureus 284 UC 76; assay: antibacterial broth MIC assay; format: cell-based; settings: Brain Heart Infusion Broth, 42 hours
Method: as §1

[8] = test system: Staphylococcus aureus UC 570; assay: antibacterial broth MIC assay; format: cell-based; settings: Brain Heart Infusion Broth, 42 hours
Method: as §1

[9] = test system: Staphylococcus aureus UC 746; assay: antibacterial broth MIC assay; format: cell-based; settings: Brain Heart Infusion Broth, 42 hours
Method: as §1

[10] = test system: Streptococcus faecalis UC 694; assay: antibacterial broth MIC assay; format: cell-based; settings: Brain Heart Infusion Broth, 42 hours
Method: as §1

[11] = test system: Streptococcus hemolyticus UC 152; assay: antibacterial broth MIC assay; format: cell-based; settings: Brain Heart Infusion Broth, 42 hours
Method: as §1

[12] = test system: Blastomyces dermatidis UC 1466; assay: antifungal agar dilution test; format: cell-based; parameters: key: -: inhibition; +: no inhibition; settings: 28° C., 72 hours
Method: (§2) The antifungal spectrum for antibiotic U-58,431 was conducted on a standard agar […] assay. The results are as follows: An agar dilution method is used. 100 mg amounts of material is solubilized in 1 ml of dimethylformamide (DMF) and diluted to 10 ml with mycophil Broth (BBL labs.) unless completely soluble in water. The material to be tested is incorporated in melted (48° C.) mycophil Agar at concentrations of 1000, 100, 10 and 1 mcg/ml. Fifteen ml of agar is pipetted into a petri dish. After solidification, the surface is streaked with agar spore suspensions of human fungal pathogens. The suspensions are made by adding 10 ml sterile distilled water to agar […] of the test organisms. The slant surface is scraped with a sterile inoculating needle, and 0.5 ml of this suspension is added to 9.5 ml melted (48° C.) mycophil Agar in a stamp streak well. (Each stamp streak base has 6 wells.) The streaked plates are incubated at 28° C. for 72 hours at which time results are recorded. Readings are by visual observation.

[13] = test system: Candida albicans UC 7163; assay: antifungal agar dilution test; format: cell-based; parameters: key: -: inhibition; +: no inhibition; settings: 28° C., 72 hours
Method: as §2

[14] = test system: Candida albicans UC 7164; assay: antifungal agar dilution test; format: cell-based; parameters: key: -: inhibition; +: no inhibition; settings: 28° C., 72 hours
Method: as §2

[15] = test system: Cryptococcus neoformans UC 1139; assay: antifungal agar dilution test; format: cell-based; parameters: key: -: inhibition; +: no inhibition; settings: 28° C., 72 hours
Method: as §2

[16] = test system: Cryptococcus neoformans UC 4869; assay: antifungal agar dilution test; format: cell-based; parameters: key: -: inhibition; +: no inhibition; settings: 28° C., 72 hours
Method: as §2

[17] = test system: Geotrichum sp. UC 1207; assay: antifungal agar dilution test; format: cell-based; parameters: key: -: inhibition; +: no inhibition; settings: 28° C., 72 hours
Method: as §2

[18] = test system: Hormodendrum compactum UC 1222; assay: antifungal agar dilution test; format: cell-based; parameters: key: -: inhibition; +: no inhibition; settings: 28° C., 72 hours
Method: as §2

[19] = test system: Nocardia asteroides UC 2052; assay: antifungal agar dilution test; format: cell-based; parameters: key: -: inhibition; +: no inhibition; settings: 28° C., 72 hours
Method: as §2

[20] = test system: Sporotrichum schenckii UC 1364; assay: antifungal agar dilution test; format: cell-based; parameters: key: -: inhibition; +: no inhibition; settings: 28° C., 72 hours
Method: as §2

[21] = test system: Trichophyton asteroides UC 4775; assay: antifungal agar dilution test; format: cell-based; parameters: key: -: inhibition; +: no inhibition; settings: 28° C., 72 hours
Method: as §2

[22] = test system: Trichophyton mentagrophytes UC 4797; assay: antifungal agar dilution test; format: cell-based; parameters: key: -: inhibition; +: no inhibition; settings: 28° C., 72 hours
Method: as §2

[23] = test system: Trichophyton mentagrophytes UC 4860; assay: antifungal agar dilution test; format: cell-based; parameters: key: -: inhibition; +: no inhibition; settings: 28° C., 72 hours
Method: as §2

[24] = test system: Trichophyton rubrum UC 1458; assay: antifungal agar dilution test; format: cell-based; parameters: key: -: inhibition; +: no inhibition; settings: 28° C., 72 hours
Method: as §2

[25] = test system: Trichophyton violaceum UC 1459; assay: antifungal agar dilution test; format: cell-based; parameters: key: -: inhibition; +: no inhibition; settings: 28° C., 72 hours
Method: as §2

[26] = solubilities; format: physicochemical
[27] = test system: various Gram-positive and Gram-negative bacteria; assay: antibacterial activity (general statement); format: cell-based
Method: as §1

[28] = test system: fungi; assay: antifungal activity (general statement); format: cell-based
Method: An agar dilution method is used. 100 mg amounts of material is solubilized in 1 ml of dimethylformamide (DMF) and diluted to 10 ml with mycophil Broth (BBL labs.) unless completely soluble in water. The material to be tested is incorporated in melted (48° C.) mycophil Agar at concentrations of 1000, 100, 10 and 1 mcg/ml. Fifteen ml of agar is pipetted into a petri dish. After solidification, the surface is streaked with agar spore suspensions of human fungal pathogens. The suspensions are made by adding 10 ml sterile distilled water to agar slants of the test organisms. The slant surface is scraped with a sterile inoculating needle, and 0.5 ml of this suspension is added to 9.5 ml melted (48° C.) mycophil Agar in a stamp streak well. (Each stamp streak base has 6 wells.)
The streaked plates are incubated at 28° C. for 72 hours at which time results are recorded. Readings are by visual observation.

[29] = test system: P. vulgaris; assay: activity against P. vulgaris (general statement); format: cell-based
Method: as §1

In the case of C[C@H]1O[C@@H]2C3=C(C(=O)C(=N)C(C(N)=O)=C3O)[C@@]1(O)C[C@H]2O [U-58,431], the “Minimum Inhibitory Concentration” value [1] is reported as 1.0 µg/mL, the “Minimum Inhibitory Concentration” value [2] is reported as 250 µg/mL and the “Minimum Inhibitory Concentration” value [3] is reported as 125 µg/mL. For the same compound, the “Minimum Inhibitory Concentration” value [4] was 250 µg/mL, the “Minimum Inhibitory Concentration” value [5] was 125 µg/mL and the “Minimum Inhibitory Concentration” value [6] was 62.5 µg/mL. For the same compound, the “Minimum Inhibitory Concentration” value [7] was 125 µg/mL, the “Minimum Inhibitory Concentration” value [8] was 125 µg/mL and the “Minimum Inhibitory Concentration” value [9] was 125 µg/mL. For the same compound, the “Minimum Inhibitory Concentration” value [10] was 250 µg/mL, the “Minimum Inhibitory Concentration” value [11] was 125 µg/mL and the “inhibition at indicated concentration” value ([12]; 1 mcg/ml) was “+”. The “inhibition at indicated concentration” value ([12]; 10 mcg/ml) was “+”, the “inhibition at indicated concentration” value ([12]; 100 mcg/ml) was “+” and the “inhibition at indicated concentration” value ([12]; 1000 mcg/ml) was “+”. The “inhibition at indicated concentration” value ([13]; 1 mcg/ml) was “+”, the “inhibition at indicated concentration” value ([13]; 10 mcg/ml) was “+” and the “inhibition at indicated concentration” value ([13]; 100 mcg/ml) was “+”. For the same compound, the “inhibition at indicated concentration” value ([13]; 1000 mcg/ml) was “+”, the “inhibition at indicated concentration” value ([14]; 1 mcg/ml) was “+” and the “inhibition at indicated concentration” value ([14]; 10 mcg/ml) was “+”. The “inhibition at indicated concentration” value ([14]; 100 mcg/ml) was “+”, the “inhibition at indicated concentration” value ([14]; 1000 mcg/ml) was “+” and the “inhibition at indicated concentration” value ([15]; 1 mcg/ml) was “+”. The “inhibition at indicated concentration” value ([15]; 10 mcg/ml) was “+”, the “inhibition at indicated concentration” value ([15]; 100 mcg/ml) was “+” and the “inhibition at indicated concentration” value ([15]; 1000 mcg/ml) was “+”. For the same compound, the “inhibition at indicated concentration” value ([16]; 1 mcg/ml) was “+”, the “inhibition at indicated concentration” value ([16]; 10 mcg/ml) was “+” and the “inhibition at indicated concentration” value ([16]; 100 mcg/ml) was “+”. The “inhibition at indicated concentration” value ([16]; 1000 mcg/ml) was “+”, the “inhibition at indicated concentration” value ([17]; 1 mcg/ml) was “+” and the “inhibition at indicated concentration” value ([17]; 10 mcg/ml) was “+”. For the same compound, the “inhibition at indicated concentration” value ([17]; 100 mcg/ml) was “+”, the “inhibition at indicated concentration” value ([17]; 1000 mcg/ml) was “+” and the “inhibition at indicated concentration” value ([18]; 1 mcg/ml) was “+”. The “inhibition at indicated concentration” value ([18]; 10 mcg/ml) was “+”, the “inhibition at indicated concentration” value ([18]; 100 mcg/ml) was “+” and the “inhibition at indicated concentration” value ([18]; 1000 mcg/ml) was “+”. The “inhibition at indicated concentration” value ([19]; 1 mcg/ml) was “+”, the “inhibition at indicated concentration” value ([19]; 10 mcg/ml) was “+” and the “inhibition at indicated concentration” value ([19]; 100 mcg/ml) was “+”. The “inhibition at indicated concentration” value ([19]; 1000 mcg/ml) was “-”, the “inhibition at indicated concentration” value ([20]; 1 mcg/ml) was “+” and the “inhibition at indicated concentration” value ([20]; 10 mcg/ml) was “+”. The “inhibition at indicated concentration” value ([20]; 100 mcg/ml) was “+”, the “inhibition at indicated concentration” value ([20]; 1000 mcg/ml) was “+” and the “inhibition at indicated concentration” value ([21]; 1 mcg/ml) was “+”. For the same compound, the “inhibition at indicated concentration” value ([21]; 10 mcg/ml) was “+”, the “inhibition at indicated concentration” value ([21]; 100 mcg/ml) was “+” and the “inhibition at indicated concentration” value ([21]; 1000 mcg/ml) was “+”. The “inhibition at indicated concentration” value ([22]; 1 mcg/ml) was “+”, the “inhibition at indicated concentration” value ([22]; 10 mcg/ml) was “+” and the “inhibition at indicated concentration” value ([22]; 100 mcg/ml) was “+”. The “inhibition at indicated concentration” value ([22]; 1000 mcg/ml) was “-”, the “inhibition at indicated concentration” value ([23]; 1 mcg/ml) was “+” and the “inhibition at indicated concentration” value ([23]; 10 mcg/ml) was “+”. For the same compound, the “inhibition at indicated concentration” value ([23]; 100 mcg/ml) was “+”, the “inhibition at indicated concentration” value ([23]; 1000 mcg/ml) was “+” and the “inhibition at indicated concentration” value ([24]; 1 mcg/ml) was “+”. For the same compound, the “inhibition at indicated concentration” value ([24]; 10 mcg/ml) was “+”, the “inhibition at indicated concentration” value ([24]; 100 mcg/ml) was “+” and the “inhibition at indicated concentration” value ([24]; 1000 mcg/ml) was “-”. For the same compound, the “inhibition at indicated concentration” value ([25]; 1 mcg/ml) was “+”, the “inhibition at indicated concentration” value ([25]; 10 mcg/ml) was “+” and the “inhibition at indicated concentration” value ([25]; 100 mcg/ml) was “+”. For the same compound, the “inhibition at indicated concentration” value ([25]; 1000 mcg/ml) was “+”, the solubility ([26]; chloroform) was “slightly soluble” and the solubility ([26]; cold methylene chloride) was “slightly soluble”. For the same compound, the solubility ([26]; ethanol) was “soluble”, the solubility ([26]; methanol) was “soluble” and the solubility ([26]; water) was “soluble”. For the same compound, the “activity against Gram-positive and Gram-negative bacteria” value [27] was “active”, the activity against fungi [28] was “active” and the “activity against P. vulgaris” value [29] was “active”.
